Test results as given in ChEMBL document CHEMBL1201862, “PubChem BioAssay data set” (2004).
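In this assay, cells in 96-well plates receive the compound at five concentrations for 48 hours. Endpoints are linearly interpolated between the surrounding concentrations. GI50 marks 50% less growth.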 Calls of active or inactive are those of the source. Cut-off read from the data, not from the text of the source: active = GI50 up to about 1.1 µM and inactive = higher.

Legend:
Assay in all cases: growth of human tumour cells (NCI), 48 h
IGROV-1 = system: IGROV-1
NCI/ADR-RES = system: NCI/ADR-RES
M14 = system: M14
K562 = system: K562
SK-MEL-28 = system: SK-MEL-28
HCT-15 = system: HCT-15
SF-268 = system: SF-268
MDA-MB-435 = system: MDA-MB-435
NCI-H522 = system: NCI-H522
NCI-H23 = system: NCI-H23
SF-539 = system: SF-539
MDA-MB-231 = system: MDA-MB-231
A549 = system: A549
HOP-62 = system: HOP-62
SK-MEL-5 = system: SK-MEL-5
OVCAR-4 = system: OVCAR-4
OVCAR-3 = system: OVCAR-3
SNB-19 = system: SNB-19
A498 = system: A498
SR = system: SR

Cc1cc(=O)c2cc(/N=C/c3ccc([N+](=O)[O-])o3)ccc2o1
GI50 (IGROV-1): > 100 µM (inactive)
GI50 (NCI/ADR-RES): > 100 µM (inactive)
GI50 (M14): > 100 µM (inactive)
GI50 (K562): 33.7 µM (inactive)
GI50 (SK-MEL-28): > 100 µM (inactive)
GI50 (HCT-15): 88.3 µM
GI50 (SF-268): 88.7 µM (inactive)
GI50 (MDA-MB-435): 44.9 µM (inactive)
GI50 (NCI-H522): 64.6 µM (inactive)
GI50 (NCI-H23): > 100 µM (inactive)
GI50 (SF-539): > 100 µM (inactive)
GI50 (MDA-MB-231): > 100 µM (inactive)
GI50 (A549): > 100 µM (inactive)
GI50 (HOP-62): > 100 µM (inactive)
GI50 (SK-MEL-5): > 100 µM (inactive)
GI50 (OVCAR-4): > 100 µM (inactive)
GI50 (OVCAR-3): > 100 µM (inactive)
GI50 (SNB-19): > 100 µM (inactive)
GI50 (A498): > 100 µM (inactive)
GI50 (SR): 32.7 µM (inactive)

COc1ccc(CC(=O)N2CCC3(C)CC(=O)CC=C23)cc1OC (stereo not given)
GI50 (IGROV-1): > 100 µM (inactive)
GI50 (NCI/ADR-RES): > 100 µM (inactive)
GI50 (M14): > 100 µM (inactive)
GI50 (K562): > 100 µM (inactive)
GI50 (SK-MEL-28): > 100 µM (inactive)
GI50 (HCT-15): > 100 µM
GI50 (SF-268): > 100 µM (inactive)
GI50 (MDA-MB-435): > 100 µM (inactive)
GI50 (NCI-H522): 33.6 µM (inactive)
GI50 (NCI-H23): > 100 µM (inactive)
GI50 (SF-539): > 100 µM (inactive)
GI50 (MDA-MB-231): > 100 µM (inactive)
GI50 (A549): > 100 µM (inactive)
GI50 (HOP-62): 93.8 µM (inactive)
GI50 (SK-MEL-5): > 100 µM (inactive)
GI50 (OVCAR-4): > 100 µM (inactive)
GI50 (OVCAR-3): > 100 µM (inactive)
GI50 (SNB-19): > 100 µM (inactive)
GI50 (A498): > 100 µM (inactive)
GI50 (SR): > 100 µM (inactive)

CC[C@]12C=CCN3CCC4(c5cc([C@@]6(C(=O)OC)CC7CN(CCc8c6[nH]c6ccccc86)C[C@@H]6CCC[C@H]76)c(OC)cc5N(C)C4[C@](O)(C(=O)OC)C1OC(C)=O)C32 (stereo not given in full)
GI50 (IGROV-1): 0.218 µM (active)
GI50 (NCI/ADR-RES): 1.15 µM (inactive)
GI50 (M14): 0.157 µM (active)
GI50 (K562): 0.0513 µM (active)
GI50 (SK-MEL-28): 0.168 µM (active)
GI50 (HCT-15): 0.443 µM
GI50 (SF-268): 0.127 µM (active)
GI50 (MDA-MB-435): 0.00318 µM (active)
GI50 (NCI-H522): 0.0188 µM (active)
GI50 (NCI-H23): 0.116 µM (active)
GI50 (SF-539): 0.11 µM (active)
GI50 (MDA-MB-231): 0.0762 µM (active)
GI50 (A549): 0.231 µM (active)
GI50 (HOP-62): 0.106 µM (active)
GI50 (SK-MEL-5): 0.0324 µM (active)
GI50 (OVCAR-4): 0.792 µM (active)
GI50 (OVCAR-3): 0.061 µM (active)
GI50 (SNB-19): 0.121 µM (active)
GI50 (A498): 0.251 µM (active)
GI50 (SR): 0.0528 µM (active)

C=[N+](CNC(=O)CNC(=O)C(Cc1ccc([N+](=O)[O-])cc1)NC(=O)OC(C)(C)C)C(=O)CNC(=O)C(Cc1ccc([N+](=O)[O-])cc1)NC(=O)OC(C)(C)C (stereo not given)
GI50 (IGROV-1): 42.4 µM (inactive)
GI50 (NCI/ADR-RES): > 100 µM (inactive)
GI50 (M14): 28.1 µM (inactive)
GI50 (K562): 19 µM (inactive)
GI50 (SK-MEL-28): 30.1 µM (inactive)
GI50 (HCT-15): > 100 µM
GI50 (SF-268): 27.8 µM (inactive)
GI50 (MDA-MB-435): 26.2 µM (inactive)
GI50 (NCI-H522): 24.3 µM (inactive)
GI50 (NCI-H23): 68.1 µM (inactive)
GI50 (SF-539): 25.1 µM (inactive)
GI50 (MDA-MB-231): 25.7 µM (inactive)
GI50 (A549): > 100 µM (inactive)
GI50 (HOP-62): > 100 µM (inactive)
GI50 (SK-MEL-5): 35.6 µM (inactive)
GI50 (OVCAR-4): > 100 µM (inactive)
GI50 (OVCAR-3): 50.1 µM (inactive)
GI50 (SNB-19): 37 µM (inactive)
GI50 (A498): 30.7 µM (inactive)
GI50 (SR): 24 µM (inactive)

Cc1cc(C)c(NC(=S)NC(=O)c2ccccc2)cc1C
GI50 (IGROV-1): > 100 µM (inactive)
GI50 (NCI/ADR-RES): > 100 µM (inactive)
GI50 (M14): > 100 µM (inactive)
GI50 (K562): 74 µM (inactive)
GI50 (SK-MEL-28): > 100 µM (inactive)
GI50 (HCT-15): 93.1 µM
GI50 (SF-268): > 100 µM (inactive)
GI50 (MDA-MB-435): 52.8 µM (inactive)
GI50 (NCI-H522): > 100 µM (inactive)
GI50 (NCI-H23): > 100 µM (inactive)
GI50 (SF-539): > 100 µM (inactive)
GI50 (MDA-MB-231): > 100 µM (inactive)
GI50 (A549): > 100 µM (inactive)
GI50 (HOP-62): > 100 µM (inactive)
GI50 (SK-MEL-5): 25.2 µM (inactive)
GI50 (OVCAR-4): 61.2 µM (inactive)
GI50 (OVCAR-3): > 100 µM (inactive)
GI50 (SNB-19): > 100 µM (inactive)
GI50 (A498): > 100 µM (inactive)
GI50 (SR): 37.7 µM (inactive)

O=C(ON=C1c2ccccc2C(Br)C(Br)c2ccccc21)c1cc([N+](=O)[O-])cc([N+](=O)[O-])c1 (stereo not given)
GI50 (IGROV-1): 2.8 µM (inactive)
GI50 (NCI/ADR-RES): 19.6 µM (inactive)
GI50 (M14): 17.6 µM (inactive)
GI50 (K562): 16.9 µM (inactive)
GI50 (SK-MEL-28): 18.9 µM (inactive)
GI50 (HCT-15): 20.5 µM
GI50 (SF-268): 17.8 µM (inactive)
GI50 (MDA-MB-435): 18.5 µM (inactive)
GI50 (NCI-H522): 5.3 µM (inactive)
GI50 (NCI-H23): 20.3 µM (inactive)
GI50 (SF-539): 18 µM (inactive)
GI50 (MDA-MB-231): 19.2 µM (inactive)
GI50 (A549): 30.4 µM (inactive)
GI50 (HOP-62): 18 µM (inactive)
GI50 (SK-MEL-5): 16.6 µM (inactive)
GI50 (OVCAR-4): 22.2 µM (inactive)
GI50 (OVCAR-3): 19.9 µM (inactive)
GI50 (SNB-19): 24.1 µM (inactive)
GI50 (A498): 17.6 µM (inactive)
GI50 (SR): 0.245 µM (active)

CNC(=O)c1cc2nc3ccccc3c(=O)n2c2ccccc12
GI50 (IGROV-1): > 10 µM (inactive)
GI50 (NCI/ADR-RES): > 10 µM (inactive)
GI50 (M14): > 10 µM (inactive)
GI50 (K562): > 10 µM (inactive)
GI50 (SK-MEL-28): > 10 µM (inactive)
GI50 (HCT-15): > 10 µM
GI50 (SF-268): > 10 µM (inactive)
GI50 (MDA-MB-435): > 10 µM (inactive)
GI50 (NCI-H522): > 10 µM (inactive)
GI50 (NCI-H23): > 10 µM (inactive)
GI50 (SF-539): > 10 µM (inactive)
GI50 (MDA-MB-231): > 10 µM (inactive)
GI50 (A549): > 10 µM (inactive)
GI50 (HOP-62): > 10 µM (inactive)
GI50 (SK-MEL-5): > 10 µM (inactive)
GI50 (OVCAR-4): > 10 µM (inactive)
GI50 (OVCAR-3): > 10 µM (inactive)
GI50 (SNB-19): > 10 µM (inactive)
GI50 (A498): > 10 µM (inactive)
GI50 (SR): > 10 µM (inactive)

CC(=O)C(CN1CCOCC1)C(c1ccccc1)c1c(O)c2ccccc2oc1=O (stereo not given)
GI50 (IGROV-1): > 100 µM (inactive)
GI50 (NCI/ADR-RES): > 100 µM (inactive)
GI50 (M14): > 100 µM (inactive)
GI50 (K562): > 100 µM (inactive)
GI50 (SK-MEL-28): > 100 µM (inactive)
GI50 (HCT-15): > 100 µM
GI50 (SF-268): > 100 µM (inactive)
GI50 (MDA-MB-435): > 100 µM (inactive)
GI50 (NCI-H522): > 100 µM (inactive)
GI50 (NCI-H23): > 100 µM (inactive)
GI50 (SF-539): > 100 µM (inactive)
GI50 (MDA-MB-231): 83.9 µM (inactive)
GI50 (A549): > 100 µM (inactive)
GI50 (HOP-62): > 100 µM (inactive)
GI50 (SK-MEL-5): > 100 µM (inactive)
GI50 (OVCAR-4): > 100 µM (inactive)
GI50 (OVCAR-3): > 100 µM (inactive)
GI50 (SNB-19): > 100 µM (inactive)
GI50 (A498): > 100 µM (inactive)
GI50 (SR): 64.7 µM (inactive)

CC1(C)C(CBr)=[N+]([O-])C(C)(C)N1O
GI50 (IGROV-1): > 6.31 µM (inactive)
GI50 (NCI/ADR-RES): > 7.24 µM (inactive)
GI50 (M14): 2.37 µM (inactive)
GI50 (K562): > 4.93 µM (inactive)
GI50 (SK-MEL-28): > 10 µM (inactive)
GI50 (HCT-15): 2.55 µM
GI50 (SF-268): 9.71 µM (inactive)
GI50 (MDA-MB-435): 4.03 µM (inactive)
GI50 (NCI-H522): 1.44 µM (inactive)
GI50 (NCI-H23): 3.59 µM (inactive)
GI50 (SF-539): > 5.38 µM (inactive)
GI50 (MDA-MB-231): > 6.76 µM (inactive)
GI50 (A549): > 10 µM (inactive)
GI50 (HOP-62): > 10 µM (inactive)
GI50 (SK-MEL-5): 4.16 µM (inactive)
GI50 (OVCAR-4): 1.77 µM (inactive)
GI50 (OVCAR-3): 3.32 µM (inactive)
GI50 (SNB-19): > 10 µM (inactive)
GI50 (A498): > 10 µM (inactive)
GI50 (SR): > 3.74 µM (inactive)

C=C(C)[C@@H](O)[C@H](O)C[C@H](C)C1CC[C@]2(C)C1=CC[C@@H]1[C@@]3(C)CC[C@@H](OC(C)=O)C(C)(C)[C@@H]3C[C@@H](OC3OC(COC(C)=O)C(O)C(O)C3O)[C@]12C (stereo not given in full)
GI50 (IGROV-1): 2.4 µM (inactive)
GI50 (NCI/ADR-RES): 15 µM (inactive)
GI50 (M14): 2.72 µM (inactive)
GI50 (K562): 2.02 µM (inactive)
GI50 (SK-MEL-28): 2.54 µM (inactive)
GI50 (HCT-15): 3.37 µM
GI50 (SF-268): 2.78 µM (inactive)
GI50 (MDA-MB-435): 2 µM (inactive)
GI50 (NCI-H522): 1.67 µM (inactive)
GI50 (NCI-H23): 4.06 µM (inactive)
GI50 (SF-539): 3.66 µM (inactive)
GI50 (MDA-MB-231): 2.21 µM (inactive)
GI50 (A549): 3.48 µM (inactive)
GI50 (HOP-62): 2.99 µM (inactive)
GI50 (SK-MEL-5): 2.1 µM (inactive)
GI50 (OVCAR-4): 2.96 µM (inactive)
GI50 (OVCAR-3): 2.17 µM (inactive)
GI50 (SNB-19): 3.71 µM (inactive)
GI50 (A498): 3.36 µM (inactive)
GI50 (SR): 1.99 µM (inactive)
